Assays:
[1] = mn = molality of the nth substance listed, in mol/kg; details: 101 kPa, Liquid; for mass density: Vibrating tube method
[2] = molar heat capacity at constant pressure; mn = molality of the nth substance listed, in mol/kg; details: 298.15 K, 101 kPa, Liquid, Flow calorimetry

Cc1cn([C@H]2CC(O)[C@@H](CO)O2)c(=O)[nH]c1=O (stereo not given in full) [thymidine] + O
[1]
Details	mass density [kg/m3]	speed of sound [m/s]
288.15 K, m1 = 0.02897	1001.3	–
288.15 K, m1 = 0.04107	1002.22	–
288.15 K, m1 = 0.05418	1003.2	–
288.15 K, m1 = 0.06905	1004.3	–
288.15 K, m1 = 0.08071	1005.18	–
288.15 K, m1 = 0.0935	1006.13	–
288.15 K, m1 = 0.1077	1007.17	–
288.15 K, m1 = 0.122	1008.22	–
288.15 K, m1 = 0.1336	1009.07	–
298.15 K, m1 = 0.02049	998.571	1498.1
298.15 K, m1 = 0.03005	999.279	1498.8
298.15 K, m1 = 0.03798	999.866	1499.4
298.15 K, m1 = 0.04153	1000.13	1499.6
298.15 K, m1 = 0.04752	1000.57	1500
298.15 K, m1 = 0.05597	1001.19	1500.6
298.15 K, m1 = 0.06455	1001.82	1501.2
298.15 K, m1 = 0.0743	1002.53	1501.9
298.15 K, m1 = 0.08286	1003.15	1502.4
298.15 K, m1 = 0.09266	1003.86	1503.1
303.15 K, m1 = 0.02802	997.714	–
303.15 K, m1 = 0.03767	998.422	–
303.15 K, m1 = 0.04737	999.127	–
303.15 K, m1 = 0.05795	999.898	–
303.15 K, m1 = 0.06905	1000.7	–
303.15 K, m1 = 0.08175	1001.62	–
303.15 K, m1 = 0.09431	1002.52	–
303.15 K, m1 = 0.1077	1003.49	–
303.15 K, m1 = 0.1198	1004.35	–
313.15 K, m1 = 0.03767	994.944	–
313.15 K, m1 = 0.04737	995.64	–
313.15 K, m1 = 0.05795	996.397	–
313.15 K, m1 = 0.0689	997.176	–
313.15 K, m1 = 0.08175	998.094	–
313.15 K, m1 = 0.09431	998.979	–
313.15 K, m1 = 0.1079	999.926	–
313.15 K, m1 = 0.1198	1000.77	–

[2]
Details	molar heat capacity at constant pressure [J/K/mol]
m1 = 0.02897	450.9
m1 = 0.04107	449.7
m1 = 0.05418	447.6
m1 = 0.06918	452.8
m1 = 0.08071	452
m1 = 0.0935	452.9
m1 = 0.1078	453.3
m1 = 0.122	453.8
m1 = 0.1336	455.5

— the NIST ThermoML archive (doi:10.1016/j.jct.2011.07.002)
